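Compound exposure: 48 hours, 5 concentrations, 96-well plates. TGI marks complete inhibition of growth.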
Columns and labels:
Experiment in all cases: NCI tumour cell line growth inhibition, 48 h
[1] = system: 786-0 renal
[2] = system: A498 renal
[3] = system: A549 NSCLC
[4] = system: ACHN renal
[5] = system: BT-549 breast
[6] = system: CAKI-1 renal
[7] = system: CCRF-CEM leukemia
[8] = system: COLO 205 colon
[9] = system: DU-145 prostate
[10] = system: EKVX NSCLC
[11] = system: HCC-2998 colon
[12] = system: HCT-116 colon
[13] = system: HCT-15 colon
[14] = system: HL-60(TB) leukemia
[15] = system: HOP-62 NSCLC
[16] = system: HS 578T breast
[17] = system: HT29 colon
[18] = system: IGROV1 ovarian
[19] = system: K-562 leukemia
[20] = system: KM12 colon
[21] = system: LOX IMVI melanoma
[22] = system: M14 melanoma
[23] = system: MALME-3M melanoma
[24] = system: MCF7 breast
[25] = system: MDA-MB-231 breast
[26] = system: MDA-MB-435
[27] = system: MDA-N
[28] = system: MOLT-4 leukemia
[29] = system: NCI-H226 lung
[30] = system: NCI-H23 lung
[31] = system: NCI-H460 lung
[32] = system: NCI-H522 lung
[33] = system: NCI/ADR-RES ovarian
[34] = system: OVCAR-3 ovarian
[35] = system: OVCAR-4 ovarian
[36] = system: OVCAR-5 ovarian
[37] = system: OVCAR-8 ovarian
[38] = system: PC-3 prostate
[39] = system: RPMI-8226 leukemia
[40] = system: RXF 393 renal
[41] = system: SF-268 CNS
[42] = system: SF-295 CNS
[43] = system: SF-539 CNS
[44] = system: SK-MEL-2 melanoma
[45] = system: SK-MEL-28 melanoma
[46] = system: SK-MEL-5 melanoma
[47] = system: SK-OV-3 ovarian
[48] = system: SN12C renal
[49] = system: SNB-19 CNS
[50] = system: SNB-75 CNS
[51] = system: SR leukemia
[52] = system: SW-620 colon
[53] = system: T-47D breast
[54] = system: TK-10 renal
[55] = system: U251 CNS
[56] = system: UACC-257 melanoma
[57] = system: UACC-62 melanoma
[58] = system: UO-31 renal
[59] = system: HOP-92 NSCLC

## C=CCC1(OC(C)=O)C2OC(=O)C1(O)OCC2O (centres undefined)
[1]
  TGI: > 100 µM
[2]
  TGI: > 100 µM
[3]
  TGI: > 100 µM
[4]
  TGI: > 100 µM
[5]
  TGI: > 100 µM
[6]
  TGI: > 100 µM
[7]
  TGI: > 100 µM
[8]
  TGI: > 100 µM
[9]
  TGI: > 100 µM
[10]
  TGI: > 100 µM
[11]
  TGI: > 100 µM
[12]
  TGI: > 100 µM
[13]
  TGI: > 100 µM
[14]
  TGI: > 100 µM
[15]
  TGI: > 100 µM
[16]
  TGI: > 100 µM
[17]
  TGI: > 100 µM
[18]
  TGI: > 100 µM
[19]
  TGI: > 100 µM
[20]
  TGI: > 100 µM
[21]
  TGI: > 100 µM
[22]
  TGI: > 100 µM
[23]
  TGI: > 100 µM
[24]
  TGI: > 100 µM
[25]
  TGI: > 100 µM
[26]
  TGI: > 100 µM
[27]
  TGI: > 100 µM
[28]
  TGI: > 100 µM
[29]
  TGI: > 100 µM
[30]
  TGI: > 100 µM
[31]
  TGI: > 100 µM
[32]
  TGI: > 100 µM
[33]
  TGI: > 100 µM
[34]
  TGI: > 100 µM
[35]
  TGI: > 100 µM
[36]
  TGI: > 100 µM
[37]
  TGI: > 100 µM
[38]
  TGI: > 100 µM
[39]
  TGI: > 100 µM
[40]
  TGI: > 100 µM
[41]
  TGI: > 100 µM
[42]
  TGI: > 100 µM
[43]
  TGI: > 100 µM
[44]
  TGI: > 100 µM
[45]
  TGI: > 100 µM
[46]
  TGI: > 100 µM
[47]
  TGI: > 100 µM
[48]
  TGI: > 100 µM
[49]
  TGI: > 100 µM
[50]
  TGI: 98.9 µM
[51]
  TGI: > 100 µM
[52]
  TGI: > 100 µM
[53]
  TGI: > 100 µM
[54]
  TGI: > 100 µM
[55]
  TGI: > 100 µM
[56]
  TGI: > 100 µM
[57]
  TGI: > 100 µM
[58]
  TGI: > 100 µM

## CC(C)=CCC/C(=C/CC/C(=C\CCc1ccoc1)C(=O)O)C(=O)O
[1]
  TGI: > 100 µM
[2]
  TGI: > 100 µM
[3]
  TGI: > 100 µM
[4]
  TGI: > 100 µM
[5]
  TGI: > 100 µM
[6]
  TGI: > 100 µM
[7]
  TGI: > 100 µM
[8]
  TGI: > 100 µM
[9]
  TGI: > 100 µM
[10]
  TGI: > 100 µM
[11]
  TGI: > 100 µM
[12]
  TGI: > 100 µM
[13]
  TGI: > 100 µM
[14]
  TGI: > 100 µM
[15]
  TGI: > 100 µM
[59]
  TGI: > 100 µM
[16]
  TGI: > 100 µM
[17]
  TGI: > 100 µM
[18]
  TGI: > 100 µM
[19]
  TGI: > 100 µM
[20]
  TGI: > 100 µM
[21]
  TGI: > 100 µM
[22]
  TGI: > 100 µM
[23]
  TGI: > 100 µM
[24]
  TGI: > 100 µM
[25]
  TGI: > 100 µM
[26]
  TGI: > 100 µM
[27]
  TGI: > 100 µM
[28]
  TGI: > 100 µM
[29]
  TGI: > 100 µM
[30]
  TGI: > 100 µM
[32]
  TGI: > 100 µM
[33]
  TGI: > 100 µM
[34]
  TGI: > 100 µM
[35]
  TGI: > 100 µM
[36]
  TGI: > 100 µM
[37]
  TGI: > 100 µM
[38]
  TGI: > 100 µM
[39]
  TGI: > 100 µM
[40]
  TGI: > 100 µM
[41]
  TGI: > 100 µM
[42]
  TGI: > 100 µM
[43]
  TGI: > 100 µM
[44]
  TGI: > 100 µM
[45]
  TGI: > 100 µM
[46]
  TGI: > 100 µM
[47]
  TGI: > 100 µM
[48]
  TGI: > 100 µM
[49]
  TGI: > 100 µM
[50]
  TGI: > 100 µM
[52]
  TGI: > 100 µM
[53]
  TGI: > 100 µM
[54]
  TGI: > 100 µM
[55]
  TGI: > 100 µM
[56]
  TGI: > 100 µM
[57]
  TGI: > 100 µM
[58]
  TGI: > 100 µM

## CCN(CC)/C(Sc1ccccc1)=C(\C(Cl)=C(Cl)Cl)[N+](=O)[O-]
[1]
  TGI: 37.5 µM
[2]
  TGI: 36.3 µM
[3]
  TGI: 52.4 µM
[4]
  TGI: 31.7 µM
[5]
  TGI: 38.1 µM
[6]
  TGI: 29.2 µM
[7]
  TGI: 20.9 µM
[8]
  TGI: 31.5 µM
[9]
  TGI: 34.9 µM
[10]
  TGI: 34.7 µM
[11]
  TGI: 34.3 µM
[12]
  TGI: 32.8 µM
[13]
  TGI: 34.8 µM
[14]
  TGI: 5.94 µM
[15]
  TGI: 42.4 µM
[59]
  TGI: 36.4 µM
[16]
  TGI: 81 µM
[17]
  TGI: 45.8 µM
[18]
  TGI: 43.7 µM
[19]
  TGI: 31.9 µM
[20]
  TGI: 36.3 µM
[21]
  TGI: 25.8 µM
[22]
  TGI: 37.5 µM
[23]
  TGI: 39.9 µM
[24]
  TGI: 30.2 µM
[25]
  TGI: 50.5 µM
[26]
  TGI: 27.7 µM
[27]
  TGI: 40.2 µM
[28]
  TGI: 31.3 µM
[29]
  TGI: 42.8 µM
[30]
  TGI: 36.1 µM
[31]
  TGI: 50.3 µM
[32]
  TGI: 33.3 µM
[33]
  TGI: > 100 µM
[34]
  TGI: 32.7 µM
[35]
  TGI: > 100 µM
[37]
  TGI: 35.6 µM
[38]
  TGI: 33.3 µM
[40]
  TGI: 36.8 µM
[41]
  TGI: 58.3 µM
[42]
  TGI: 37.1 µM
[43]
  TGI: 33 µM
[45]
  TGI: 32 µM
[46]
  TGI: 29 µM
[47]
  TGI: 73.1 µM
[48]
  TGI: 37.8 µM
[49]
  TGI: 49.9 µM
[50]
  TGI: 57.3 µM
[52]
  TGI: 40.3 µM
[53]
  TGI: 42 µM
[54]
  TGI: 31.3 µM
[56]
  TGI: 44.5 µM
[57]
  TGI: 43.7 µM
[58]
  TGI: 28.9 µM

Source: PubChem BioAssay (NCI)
